Test system: MCF-7 breast cancer cells
Test: Microarray gene expression analysis (Agilent whole human genome 4 x 44K; compound vs DMSO, LIMMA log2 fold change)
Type: cell-based
Settings: cell cycle genes

Oc1cccc(-c2nc(N3CCOCC3)c3oc4ncccc4c3n2)c1 [PI-103]
MLF1 log2FC (Gene 4291): 0.58 | MLH1 log2FC (Gene 4292): 0.34 | MAP3K11 log2FC (Gene 4296): -0.58 | MNAT1 log2FC (Gene 4331): 0.59 | MNT log2FC (Gene 4335): 1.54 | MOS log2FC (Gene 4342): -0.08 | MRE11A log2FC (Gene 4361): 0.27 | MSH2 log2FC (Gene 4436): 0.79 | MSH3 log2FC (Gene 4437): 0.54 | MSH4 log2FC (Gene 4438): -0.0458 | MSX1 log2FC (Gene 4487): -0.24 | MSX2 log2FC (Gene 4488): 0.05 | MUC1 log2FC (Gene 4582): -0.28 | TRIM37 log2FC (Gene 4591): 0.67 | MX2 log2FC (Gene 4600): -0.08 | MYB log2FC (Gene 4602): 0.51 | MYBL2 log2FC (Gene 4605): -0.39 | MYC log2FC (Gene 4609): 0.42 | GADD45B log2FC (Gene 4616): 0.86 | MYH9 log2FC (Gene 4627): -0.23 | MYH10 log2FC (Gene 4628): -0.0425 | PPP1R12A log2FC (Gene 4659): 0.42 | PPP1R12B log2FC (Gene 4660): 0.33 | NUBP1 log2FC (Gene 4682): -0.22 | NBN log2FC (Gene 4683): 0.62 | NEDD9 log2FC (Gene 4739): 0.0368 | NEK1 log2FC (Gene 4750): 0.57 | NEK2 log2FC (Gene 4751): 1.00 | NEUROD1 log2FC (Gene 4760): 0.04 | NGFR log2FC (Gene 4804): -0.07 | NOTCH2 log2FC (Gene 4853): 0.27 | NPAT log2FC (Gene 4863): 0.48 | NPM1 log2FC (Gene 4869): 0.28 | NUP88 log2FC (Gene 4927): 0.08 | ODF2 log2FC (Gene 4957): -0.13 | OSM log2FC (Gene 5008): -0.00804 | OVOL1 log2FC (Gene 5017): -0.06 | PAFAH1B1 log2FC (Gene 5048): 0.72 | PAK1 log2FC (Gene 5058): 0.07 | PAK3 log2FC (Gene 5063): 0.09 | PCM1 log2FC (Gene 5108): 0.63 | PCNT log2FC (Gene 5116): 0.45 | PDGFB log2FC (Gene 5155): -0.24 | PDGFRB log2FC (Gene 5159): 0.0243 | PGGT1B log2FC (Gene 5229): -0.28 | ABCB1 log2FC (Gene 5243): -0.02 | PIK3C3 log2FC (Gene 5289): 1.00 | PIM1 log2FC (Gene 5292): 1.29 | PIN1 log2FC (Gene 5300): -0.0472 | PKD1 log2FC (Gene 5310): 0.37 | PKD2 log2FC (Gene 5311): 0.13 | PKHD1 log2FC (Gene 5314): -0.09 | PLAGL1 log2FC (Gene 5325): 0.32 | PML log2FC (Gene 5371): -0.41 | PMS1 log2FC (Gene 5378): 0.55 | PMS2 log2FC (Gene 5395): 0.12 | POLD1 log2FC (Gene 5424): 0.33 | POLE log2FC (Gene 5426): -0.10 | PPAT log2FC (Gene 5471): 0.07 | PPM1A log2FC (Gene 5494): 0.27 | PPP1CB log2FC (Gene 5500): 0.81 | PPP1CC log2FC (Gene 5501): 0.33 | PPP2R1A log2FC (Gene 5518): 0.06 | PPP2R2A log2FC (Gene 5520): -0.06 | PPP2R4 log2FC (Gene 5524): -0.32 | PPP2R5C log2FC (Gene 5527): 0.78 | PPP3CA log2FC (Gene 5530): 0.45 | PPP5C log2FC (Gene 5536): -0.24 | PPP6C log2FC (Gene 5537): -0.35 | PRCC log2FC (Gene 5546): -0.66 | PRIM1 log2FC (Gene 5557): 0.46 | PRKAA1 log2FC (Gene 5562): 0.30 | PRKAA2 log2FC (Gene 5563): 0.07 | PRKAB1 log2FC (Gene 5564): 0.25 | PRKAB2 log2FC (Gene 5565): 0.81 | PRKACA log2FC (Gene 5566): -0.35 | PKIA log2FC (Gene 5569): -0.29 | PRKAG1 log2FC (Gene 5571): 0.09 | PRKAR1A log2FC (Gene 5573): 0.45 | PRKAR2B log2FC (Gene 5577): 0.43 | PRKCA log2FC (Gene 5578): -0.16 | PRKCD log2FC (Gene 5580): 0.12 | PRKCE log2FC (Gene 5581): -0.00329 | PKN2 log2FC (Gene 5586): 0.51 | MAPK1 log2FC (Gene 5594): 0.0165 | MAPK3 log2FC (Gene 5595): -0.12 | MAPK13 log2FC (Gene 5603): -0.17 | MAP2K1 log2FC (Gene 5604): -0.23 | MAP2K6 log2FC (Gene 5608): 0.36 | PROX1 log2FC (Gene 5629): -0.08 | KLK10 log2FC (Gene 5655): -0.42 | PSMA1 log2FC (Gene 5682): -0.03 | PSMA4 log2FC (Gene 5685): 0.47 | PSMA6 log2FC (Gene 5687): 0.07 | PSMB1 log2FC (Gene 5689): 0.00908 | PSMB2 log2FC (Gene 5690): -0.43 | PSMB3 log2FC (Gene 5691): 0.0534 | PSMB5 log2FC (Gene 5693): -0.22 | PSMB6 log2FC (Gene 5694): -0.08 | PSMB8 log2FC (Gene 5696): -0.00568 | PSMC1 log2FC (Gene 5700): -0.00867 | PSMC2 log2FC (Gene 5701): 0.28 | PSMC5 log2FC (Gene 5705): -0.31 | PSMC6 log2FC (Gene 5706): 0.52 | PSMD2 log2FC (Gene 5708): 0.00374 | PSMD3 log2FC (Gene 5709): -0.0745 | PSMD4 log2FC (Gene 5710): -0.0364 | PSMD5 log2FC (Gene 5711): 0.19 | PSMD7 log2FC (Gene 5713): 0.00364 | PSMD9 log2FC (Gene 5715): -0.40 | PSMD12 log2FC (Gene 5718): -0.77 | PSMD13 log2FC (Gene 5719): -0.17 | PSME2 log2FC (Gene 5721): 0.04 | PTEN log2FC (Gene 5728): 0.96 | PTGS2 log2FC (Gene 5743): -0.0533 | PTPN3 log2FC (Gene 5774): -0.31 | PTPN6 log2FC (Gene 5777): 0.26 | PTPRC log2FC (Gene 5788): -0.0261 | PTPRK log2FC (Gene 5796): 0.72 | RAD1 log2FC (Gene 5810): -0.29 | RAD9A log2FC (Gene 5883): 0.68 | RAD17 log2FC (Gene 5884): 1.15 | RAD21 log2FC (Gene 5885): 0.83 | RAD51 log2FC (Gene 5888): -0.29 | RAD52 log2FC (Gene 5893): 0.14 | RAN log2FC (Gene 5901): -0.14 | RANBP1 log2FC (Gene 5902): -0.10 | RANBP2 log2FC (Gene 5903): 0.42 | RARA log2FC (Gene 5914): -0.31 | RASA1 log2FC (Gene 5921): 0.47 | RB1 log2FC (Gene 5925): 0.67 | RBL2 log2FC (Gene 5934): 0.41 | RFC1 log2FC (Gene 5981): 1.04 | RFC2 log2FC (Gene 5982): -0.10 | RFC5 log2FC (Gene 5985): 0.15 | RGS2 log2FC (Gene 5997): -2.43 | RHEB log2FC (Gene 6009): 0.40 | RNF2 log2FC (Gene 6045): -0.11 | RNF4 log2FC (Gene 6047): -0.48 | RPA3 log2FC (Gene 6119): 0.23 | RPS6KA2 log2FC (Gene 6196): 0.19 | RPS6KA3 log2FC (Gene 6197): 0.27 | RPS15A log2FC (Gene 6210): 0.48 | RPS27 log2FC (Gene 6232): 0.35 | RPS27A log2FC (Gene 6233): 0.45 | RRM1 log2FC (Gene 6240): 0.36 | RRM2 log2FC (Gene 6241): -0.81 | SETMAR log2FC (Gene 6419): -0.16 | SIAH2 log2FC (Gene 6478): -0.48 | SKP2 log2FC (Gene 6502): -1.28 | SMARCA4 log2FC (Gene 6597): -0.39 | SOX2 log2FC (Gene 6657): 0.23 | SOX9 log2FC (Gene 6662): -2.01 | SPAST log2FC (Gene 6683): 0.37 | SPTBN1 log2FC (Gene 6711): 0.11 | SRPK2 log2FC (Gene 6733): 0.78 | TRIM21 log2FC (Gene 6737): 0.02

Source: paper PMC4303209, “A novel phosphatidylinositol 3-kinase (PI3K) inhibitor directs a potent FOXO-dependent, p53-independent cell cycle arrest phenotype characterized by the differential induction of a subset of FOXO-regulated genes” (Breast Cancer Research : BCR, 2014)
